Test results as given in patent US12594263B2, “CBL inhibitors and compositions for expansion of immune cells” (Nurix Therapeutics, Inc., priority 2019, dated 2026).

System: E.G7-OVA tumors
Experiment: Oral Cbl inhibitor treatment of mice given expanded OT-1 cells
Format: in vivo, mouse
Protocol: Tumor volume was measured roughly every five days after cell transfer.
OT-1 cells were assessed in mouse blood 5 days and 20 days after transfer.

[1] = 5 days and 20 days after transfer (FIGS. 20A, 20B)

C[C@H]1CCCN(Cc2cc3c(c(C(F)(F)F)c2)CN(c2cccc([C@]4(c5nncn5C)C[C@@H](C)C4)c2)C3=O)C1 [Compound 116]
Frequency of OT-1 cells in mouse blood [1]: increased frequency of OT-1 cells | Persistence of OT-1 cells in mouse blood [1]: longer persistence of OT-1 cells | Anti-tumor efficacy of OT-1 cells expanded with compound 103 plus IL-2 (tumor volume) (oral administration (FIG. 18)): enhanced the anti-tumor efficacy | Survival of mice treated with OT-1 cells expanded with compound 103 plus IL-2 (oral administration (FIG. 19)): enhanced survival
